Experimental findings from article PMC12016531 (Applied and Environmental Microbiology, 2025) are described below.

Test [1] relates to L. monocytogenes ATCC19111. Nature of the test: Intracellular accumulation of UDP-MurNAc-pentapeptide. The class given is cell-based, Listeria monocytogenes. The following applies: mycoidesin 1× and 2× MIC, vancomycin 10× MIC; 60 min; chloramphenicol 130 µg/mL pre-incubation 15 min; HPLC, MS. As to the method:
(§1) Bacillus cereus CMCC63301 and L. monocytogenes ATCC19111 were grown to an OD600 of 0.3 and incubated with chloramphenicol (130 µg/mL) for 15 min. Mycoidesin (1× and 2× MIC) and vancomycin (10× MIC; positive control) were added and incubated for 60 min. The cells were collected, added to boiling water, treated for 15 min, centrifuged, and the supernatant was lyophilized. The intracellular accumulation of the peptidoglycan precursor UDP-MurNAc-pentapeptide was analyzed using HPLC (Hypersil ODS column) and identified via mass spectrometry ([27]).

In test [2] the test system is Bacillus cereus CMCC63301. The test is described as above. The class given is cell-based. Particulars: mycoidesin 1× and 2× MIC, vancomycin 10× MIC; 60 min; chloramphenicol 130 µg/mL pre-incubation 15 min; HPLC, MS. On the procedure: as §1

Take `CN[C@H](CC(C)C)C(=O)N[C@H]1C(=O)N[C@@H](CC(N)=O)C(=O)N[C@H]2C(=O)N[C@H]3C(=O)N[C@H](C(=O)N[C@H](C(=O)O)c4cc(O)cc(O)c4-c4cc3ccc4O)[C@H](O)c3ccc(c(Cl)c3)Oc3cc2cc(c3O[C@@H]2O[C@H](CO)[C@@H](O)[C@H](O)[C@H]2O[C@H]2C[C@](C)(N)[C@H](O)[C@H](C)O2)Oc2ccc(cc2Cl)[C@H]1O` [vancomycin, reference compound]: the “Intracellular accumulation of UDP-MurNAc-pentapeptide” value in test [1] and in test [2] was “observed” each time.
